Reference: patent US8394799B2, “Compounds that inhibit HIF-1 activity, the method for preparation thereof and the pharmaceutical composition containing them as an effective component” (Korea Research Institute of Bioscience and Biotechnology, priority 2006, dated 2013)

Tests used:
HIF-1 [1] = assay: Assay of IC50, AGS cells (HRE-luciferase transfected); format: cell-based; details: Homo sapiens
Excerpt: (§1) Six tandem repeats of HRE (hypoxia Responsive Element 5′-ACGTG-3′), which is present in a human VEGF gene, was inserted into the multi-cloning region of a pGL3-basic vector (Promega) containing a luciferase gene as a reporter gene to produce a recombinant pGL3-HRE-luciferase vector which was then used to assay the compounds prepared in the above Examples for inhibition activity against HIF-mediated transcriptional activity.

HIF-1 [2] = assay: Assay of IC50, Hep3B cells (HRE-luciferase transfected); format: cell-based; details: Homo sapiens
Excerpt: as §1

HIF-1 [3] = assay: HRE reporter assay, HIF activity % remaining, AGS cells; format: cell-based, human; details: summary in words of the data of Table 1 and Table 2; cell line not stated
Excerpt: as §1
The hepatocellular carcinoma cell line HepG2 or Hep3B, both available from ATCC (American Type Culture Collection), and the gastric carcinoma cell line AGS, available from ATCC, were grown at 70% confluency in culture dishes and co-transfected with an internal control vector (pRL-CMV, Promega) and the recombinant pGL3-HRE-luciferase vector using Lipofectamine Plus Reagent (Invitrogen). HepG2 and AGS cells were treated with the compound of Chemical Formula 1A while Hep3B and AGS cells were treated with the compound of Chemical Formula 1B. The compound of Chemical Formula 1A was used in a concentration of 10 μm for HepG2 or AGS cells. The compound of Chemical Formula 1B was used in a concentration of 30 μM for Hep3B and in a concentration of 10 μM for AGS cells. […] The compounds prepared in Examples above were assayed for inhibition activity against HIF-1 by measuring the activity of the luciferase, induced in hypoxia, using a Dual-luciferase reporter assay system (Promoga). In this regard, the luciferase activity was measured for 10 sec using a Microlumat Plus luminometer (EG&G Berthold). In the meanwhile, the renilla luciferase activity from the control vector PRL-CMV (Promega) was measured to normalize the data obtained.
On the basis of the renilla luciferase activity, the HIF activity % remaining after treatment with the compounds was corrected.

HIF-1 [4] = assay: Assay of IC50, SK-Hep-1 cells (same manner); format: cell-based; details: Homo sapiens, SK-HEP1; SK-Hep-1 cell line, compounds 0.01 to 100 μM for 16 hrs
Excerpt: as §1

[5] = system: metastatic breast carcinoma cell line MDA-MB-435; assay: In vivo anticancer activity in nude mice implanted with MDA-MB-435; details: for inhibition of the growth of the cancer cells compared to the control: once a day, MDA-MB-435 in nude mice
Excerpt: Female nude mice 5-6 weeks old (Crj:BALB/c nu/nu, Charles River) were bred in germ-free breeding rooms maintained at constant temperature and humidity. The nude mice were anesthetized before incision of the chest skin. The metastatic breast carcinoma cell line MDA-MB-435, obtained from DR D. R. Welch, Univ. Alabama, was implanted at a count of 10^6 cells/mouse into the mammary gland fat pad, and the incisions were then closed with surgical clips. The nude mice were divided into test groups and a control group, each consisting of 6 mice. […] For the control group, Solution A alone was used at a dose of 100 μl once a day. Thereafter, tumor volumes and body weights were measured once a week. Tumor volumes were calculated according to the following Mathematic Formula 1. Tumor Volume (mm^3)=(Length of Long Axis,mm)×(Length of Short Axis,mm)^2×0.5 <Mathematic Formula 1>

IC50 (HIF-1 [1]) | IC50 (HIF-1 [2]) | IC50 (HIF-1 [4]) | SMILES | further results
7.4 µM | 9.9 µM | – | COC(=O)c1cccc(NC(=O)COc2ccc(C34CC5CC(CC(C5)C3)C4)cc2)c1 [Example 2, 3-[2-(4-Adaman-1-yl-phenoxy)-acetylamino]-benzoic acid methyl ester] | –
1 µM | 4.3 µM | – | NC(=O)c1cccc(NC(=O)COc2ccc(C34CC5CC(CC(C5)C3)C4)cc2)c1 [Example 23, 3-[2-(4-Adamantan-1-yl-phenoxy)acetyl-amino]-benzamide] | inhibition activity against the transcription mediated by HIF-1, induced in hypoxia (HIF-1 [3]): excellent inhibition activity
> 30 µM | > 30 µM | – | CC(C)(C)c1ccc(OCC(=O)Nc2cccc(C(N)=O)c2)cc1 [Example 30, 3-[2-(4-tert-butyl-phenoxy)-acetyl-amino]-benzamide] | –
> 30 µM | > 30 µM | – | Cc1ccc(OCC(=O)Nc2cccc(C(N)=O)c2)cc1 [Example 31, 3-(2-p-tolyloxy-acetyl-amino)-benzamide] | –
> 30 µM | > 30 µM | – | NC(=O)c1cccc(NC(=O)COc2ccc([N+](=O)[O-])cc2)c1 [Example 32, 3-[2-(4-nitro-phenoxy)-acetyl-amino)benzamide] | –
0.35 µM | 0.4 µM | – | O=C(COc1ccc(C23CC4CC(CC(C4)C2)C3)cc1)Nc1cc(C(=O)O)ccc1O [Example 48, 3-[2-(4-Adamantan-1-yl-phenoxy)-acetylamino]-4-hydroxy-benzoic acid] | inhibition activity against the transcription mediated by HIF-1, induced in hypoxia (HIF-1 [3]): excellent inhibition activity
> 30 µM | > 30 µM | – | O=C(COc1ccc(F)cc1)Nc1cccc(C(=O)O)c1 [Example 51, 3-[2-(4-fluoro-phenoxy)acetylamino]-benzoic acid] | –
10 µM | > 30 µM | – | O=C(COc1ccc(Cl)cc1)Nc1cccc(C(=O)O)c1 [Example 52, 3-[2-(4-chloro-phenoxy)-acetylamino]-benzoic acid] | –
1.6 µM | > 30 µM | – | O=C(COc1ccc(Br)cc1)Nc1cccc(C(=O)O)c1 [Example 57, 3-[2-(4-bromo-phenoxy)-acetylamino]-benzoic acid] | –
3.5 µM | 7.2 µM | – | O=C(COc1ccc(I)cc1)Nc1cccc(C(=O)O)c1 [Example 58, 3-[2-(4-iodo-phenoxy)-acetylamino]-benzoic acid] | –
> 30 µM | > 30 µM | – | CC(=O)c1ccc(OCC(=O)Nc2cccc(C(=O)O)c2)cc1 [Example 60, 3-[2-(4-acetyl-phenoxy)-acetylamino]-benzoic acid] | –
1.5 µM | > 30 µM | – | NC(=O)c1ccc(O)c(NC(=O)COc2ccc(C34CC5CC(CC(C5)C3)C4)cc2)c1 [Example 65, 3-[2-(4-adamantan-1-yl-phenoxy)-acetylamino]-4-hydroxy-benzamide] | –
> 30 µM | > 30 µM | – | CN(C)C(=O)c1ccc(O)c(NC(=O)COc2ccc(C34CC5CC(CC(C5)C3)C4)cc2)c1 [Example 66, 3-[2-(4-adamantan-1-yl-phenoxy)-acetylamino]-4-hydroxy-N,N-dimethyl-benzamide] | –
5.9 µM | 12.6 µM | – | O=C(COc1ccc(C23CC4CC(CC(C4)C2)C3)cc1)Nc1cc(C(=O)NCc2ccco2)ccc1O [Example 67, 3-[2-(4-adamantan-1-yl-phenoxy)-acetylamino]-N-furan-2-ylmethyl-4-hydroxy-benzamide] | –
3 µM | 51.7 µM | – | CN(C)CCNC(=O)c1ccc(O)c(NC(=O)COc2ccc(C34CC5CC(CC(C5)C3)C4)cc2)c1 [Example 68, 3-[2-(4-adamantan-1-yl-phenoxy)-acetylamino]-N-(2-dimethylamino-ethyl)-4-hydroxy-benzamide] | –
> 30 µM | > 30 µM | – | O=C(COc1ccc(C23CC4CC(CC(C4)C2)C3)cc1)Nc1cc(C(=O)NCCCN2CCOCC2)ccc1O [Example 69] | –
9.5 µM | > 30 µM | – | O=C(COc1ccc(C23CC4CC(CC(C4)C2)C3)cc1)Nc1cccc(C(=O)Nc2ccc(Cl)cc2)c1 [Example 70, 3-[2-(4-adamantan-1-ylphenoxy)-acetylamino]-N-(4-chloro-phenyl)-benzamide] | –

IC50 (HIF-1 [1]) | IC50 (HIF-1 [2]) | IC50 (HIF-1 [4]) | SMILES | further results
> 30 µM | > 30 µM | – | O=C(COc1ccc(C23CC4CC(CC(C4)C2)C3)cc1)Nc1cccc(C(=O)Nc2ccc3ccccc3c2)c1 [Example 72, 3-[2-(4-adamantan-1-yl-phenoxy)-acetylamino]-N-naphtalene-2-yl-benzamide] | –
2 µM | 14.1 µM | – | O=C(COc1ccc(C23CC4CC(CC(C4)C2)C3)cc1)Nc1cccc(C(=O)NCc2ccco2)c1 [Example 73] | –
3.1 µM | 8.2 µM | – | O=C(COc1ccc(C23CC4CC(CC(C4)C2)C3)cc1)Nc1cccc(C(=O)NCCc2ccncc2)c1 [Example 74] | –
35 µM | > 30 µM | – | O=C(COc1ccc(Cl)cc1Cl)Nc1cccc(C(=O)NCc2ccco2)c1 [Example 77, 3-[2-(2,4-dichloro-phenoxy)-acetylamino]-N-furan-2-ylmethyl-benzamide] | –
> 30 µM | 23.2 µM | – | O=C(COc1ccc(Cl)cc1Cl)Nc1cc(C(=O)NCc2ccco2)ccc1O [Example 78, 3-[2-(2,4-dichloro-phenoxy)-acetylamino]-N-fan-2-ylmethyl-4-hydroxy-benzamide] | –
2 µM | 1.2 µM | 1.03 µM | COC(=O)c1ccnc(NC(=O)COc2ccc(C34CC5CC(CC(C5)C3)C4)cc2)c1 [Example 86, 2-[2-(4-adamantan-1-yl-phenoxy)acetylamino]-isonicotinic acid methyl ester] | –
5 µM | 5.9 µM | > 30 µM | COC(=O)c1cncc(NC(=O)COc2ccc(C34CC5CC(CC(C5)C3)C4)cc2)c1 [Example 87, 5-[2-(4-adamantan-1-yl-phenoxy)acetylamino]-nicotinic acid methyl ester] | –
– | – | – | O=C(COc1ccc(Cl)cc1Cl)Nc1cc(C(=O)O)ccn1 [Example 95, 2-[2-(2,4-dichloro-phenoxy)-acetylamino]-isonicotinic acid] | inhibition of the growth of the cancer cells compared to the control ([5]; 20 mg/kg): 4.3%; deaths in six mice of each group ([5]; 50 mg/kg): No dead were observed; inhibition of the growth of the cancer cells compared to the control ([5]; 50 mg/kg): 36.5%
– | 1.03 µM | 2 µM | O=C(COc1ccc(C23CC4CC(CC(C4)C2)C3)cc1)Nc1cc(C(=O)O)ccn1 [Example 98, 2-[2-(4-adamantan-1-yl-phenoxy)acetylamino]-isonicotinic acid] | –
– | – | > 30 µM | O=C(COc1ccc(C23CC4CC(CC(C4)C2)C3)cc1)Nc1cncc(C(=O)NCCc2ccncc2)c1 [Example 102, 5-[2-(4-adamantan-1-yl-phenoxy)acetylamino]-N-(2-pyridine-4-yl-ethyl)nicotinamide] | –
– | – | 1.9 µM | O=C(COc1ccc(C23CC4CC(CC(C4)C2)C3)cc1)Nc1cncc(C(=O)NCCCn2ccnc2)c1 [Example 103, 5-[2-(4-adamantan-1-yl-phenoxy)-acetylamino]-N-(3-imidazole-1-yl-propyl)nicotinamide] | –
– | – | 2.5 µM | O=C(COc1ccc(C23CC4CC(CC(C4)C2)C3)cc1)Nc1cc(C(=O)Nc2ccc(Cl)cc2)ccn1 [Example 104, 2-[2-(4-adamantan-1-yl-phenoxy)-acetylamino]-N-(4-chloro-phenyl)-isonicotinamide] | –
– | – | > 30 µM | O=C(COc1ccc(C23CC4CC(CC(C4)C2)C3)cc1)Nc1cc(C(=O)NCc2ccco2)ccn1 [Example 105, 2-[2-(4-adamantan-1-yl-phenoxy)-acetylamino]-N-furan-2-ylmethyl-isonicotinamide] | –
– | – | 3.4 µM | O=C(COc1ccc(C23CC4CC(CC(C4)C2)C3)cc1)Nc1cc(C(=O)NCCc2ccncc2)ccn1 [Example 106, 2-[2-(4-adamantan-1-yl-phenoxy)-acetylamino]-N-(2-pyridine-4-yl-ethyl)-isonicotinamide] | –
– | – | < 1 µM | O=C(COc1ccc(C23CC4CC(CC(C4)C2)C3)cc1)Nc1cc(C(=O)NCCCn2ccnc2)ccn1 [Example 107, 2-[2-(4-adamantan-1-yl-phenoxy)-acetylamino]-N-(3-imidazole-1-yl-propyl)-isonicotinamide] | –
– | – | 11.9 µM | NC(=O)c1cncc(NC(=O)COc2ccc(C34CC5CC(CC(C5)C3)C4)cc2)c1 [Example 112, 5-[2-(4-adamantan-1-yl-phenoxy)acetylamino]-nicotinamide] | –
